The assay concerns neutrophils. Nature of the assay: TNF suppression of neutrophil apoptosis, kinase inhibitor pretreatment (initial studies). It is filed as cell-based. The following applies: pretreatment with kinase inhibitor. An excerpt:
δ-PKC has been identified as an important regulator of cytokine mediated anti-apoptotic and pro-inflammatory signaling in adherent neutrophils (Kilpatrick, L. E., et al. (2002) Am J Physiol Cell Physiol 283, C48-57; Kilpatrick, L. E., et al. (2004) Am J Physiol Cell Physiol 287, C633-42; Kilpatrick, L. E., et al. (2006) J Leukoc Biol. 80:1512-1521; Kilpatrick, L. E., et al. (2000) Am J Physiol Cell Physiol 279, C2011-8). Neutrophils undergo spontaneous apoptosis which can be suppressed in vitro by culturing cells in the presence of cytokines such as TNF (Kilpatrick, L. E., et al. (2002) Am J Physiol Cell Physiol 283, C48-57; Kilpatrick, L. E., et al. (2006) J Leukoc Biol. 80:1512-1521). […] Activation of caspases is one of the earliest markers of apoptosis occurring upstream of DNA fragmentation and PS externalization. Caspase 3 plays a critical role in spontaneous neutrophil apoptosis (Kilpatrick, L. E., et al. (2002) Am J Physiol Cell Physiol 283, C48-57; Daigle, I., Simon, H. U. (2001) Int Arch Allergy Immunol 126, 147-56; Scheel-Toellner, D., et al. (2004) Blood 104, 2557-64). […] However, recent reports have raised issues about the specificity of rottlerin as a δ-PKC inhibitor (Davies, S. P., et al. (2000) Biochem J 351, 95-105). To establish a role specifically for δ-PKC in the TNF-mediated anti-apoptotic signaling, a more specific inhibitor is required. […]

Take `CC(=O)c1c(O)c(C)c(O)c(Cc2c(O)c3c(c(C(=O)/C=C/c4ccccc4)c2O)OC(C)(C)C=C3)c1O` [rottlerin]: the “suppression of neutrophil apoptosis by TNF” value is given as “inhibited”.

Values taken from patent US8470766B2, “Protein kinase C therapy for the treatment of acute lung injury” (The Children's Hospital of Philadelphia, priority 2006, dated 2013).
